Test results from patent US8658565B2 (priority 2010, dated 2014).
Read-outs that look alike come from different tables or passages of the source.

Tests used:
Type in all cases: in vivo
Sphaerotheca fuliginea = test: Sphaerotheca test (cucumbers)/preventive, Example F: biological control agent sprayed first, (I-1) 4 h later; details: (I-1) alone 50 ppm a.i., evaluated 7 days after inoculation
Procedure: (§1) To produce a suitable preparation of active compound, 1 part by weight of the dithiino-tetracarboximide is mixed with 24.5 parts by weight of acetone, 24.5 parts by weight of dimethylacetamide and 1 part by weight of emulsifier alkylaryl polyglycol ether. The concentrate is diluted with water to the desired concentration.
(§2) Serenade® WPO, a wettable powder formulation containing the bacteria Bacillus subtilis (variety QST 713), is mixed and diluted with water to the desired concentration.
Young plants are sprayed with the aqueous preparation of the biological control agents, e.g. Serenade® WPO, at the stated rate of application. 4 hours later and after the spray coating has dried on, the plants are sprayed with the preparation of (I-1) 2,6-dimethyl-1H,5H-[1,4]dithiino[2,3-c:5,6-c′]dipyrrole-1,3,5,7(2H,6H)-tetrone at the stated rate of application. The next day the plants are inoculated with an aqueous spore suspension of Sphaerotheca fuliginea. The plants are then placed in a greenhouse at approximately 23° C. and a relative atmospheric humidity of approximately 70%. The test is evaluated 7 days after the inoculation. 0% means an efficacy which corresponds to that of the untreated control, while an efficacy of 100% means that no disease is observed.

Phytophthora infestans [1] = details: tomatoes, evaluated 3 days after inoculation
Botrytis cinerea = test: Botrytis test (beans)/preventive, Example I: biological control agent sprayed first, (I-1) 4 h later; details: (I-1) alone 12.5 ppm a.i., lesion size evaluated 2 days after inoculation
Procedure: as §1
BioNem WP®, a wettable powder formulation containing the bacteria Bacillus firmus, is mixed and diluted with water to the desired concentration.
Young plants are sprayed with the aqueous preparation of the biological control agents, e.g. BioNem WP®, at the stated rate of application. 4 hours later and after the spray coating has dried on, the plants are sprayed with the preparation of (I-1) 2,6-dimethyl-1H,5H-[1,4]dithiino[2,3-c:5,6-c′]dipyrrole-1,3,5,7(2H,6H)-tetrone at the stated rate of application. The next day the plants are inoculated by placing 2 small pieces of agar covered with growth of Botrytis cinerea on each leaf. The inoculated plants are placed in a darkened chamber at 20° C. and a relative atmospheric humidity of 100%. 2 days after the inoculation, the size of the lesions on the leaves is evaluated. 0% means an efficacy which corresponds to that of the untreated control, while an efficacy of 100% means that no disease is observed.

Alternaria solani [2] = test: Alternaria test (tomatoes)/preventive, Example D: (I-1) sprayed first, biological control agent 4 h later; details: (I-1) alone 25 ppm a.i., evaluated 3 days after inoculation
Procedure: as §1
Shemer, a water dispersible granule formulation containing the yeast Metschnikowia fructicola, is mixed and diluted with water to the desired concentration.
Young plants are sprayed with the preparation of (I-1) 2,6-dimethyl-1H,5H-[1,4]diithiino[2,3-c:5,6-c′]dipyrrole-1,3,5,7(2H,6H)-tetrone at the stated rate of application. 4 hours later and after the spray coating has dried on, the plants are sprayed with the aqueous preparation of the biological control agents, e.g. Shemer, at the stated rate of application. The next day the plants are inoculated with an aqueous spore suspension of Alternaria solani. The plants are then placed in an incubation cabinet at approximately 20° C. and a relative atmospheric humidity of 100%. The test is evaluated 3 days after the inoculation. 0% means an efficacy which corresponds to that of the untreated control while an efficacy of 100% means that no disease is observed.

Sphaerotheca fidiginea = test: Sphaerotheca test (cucumbers)/preventive, Example B: (I-1) sprayed first, biological control agent 4 h later; details: (I-1) alone 50 ppm a.i., evaluated 7 days after inoculation
Procedure: as §1, §2
Young plants are sprayed with the preparation of (I-1) 2,6-dimethyl-1H,5H-[1,4]dithiino[…]dipyrrole-1,3,5,7(2H,6H)-tetrone at the stated rate of application. 4 hours later and after the spray coating has dried on, the plants are sprayed with the aqueous preparation of the biological control agents, e.g. Serenade® WPO, at the stated rate of application. The next day the plants are inoculated with an aqueous spore suspension of Sphaerotheca fidiginea. The plants are then placed in a greenhouse at approximately 23° C. and a relative atmospheric humidity of approximately 70%. The test is evaluated 7 days after the inoculation. 0% means an efficacy which corresponds to that of the untreated control, while an efficacy of 100% means that no disease is observed.

Venturia inaequalis [3] = test: Venturia test (apples)/preventive, Example G: biological control agent sprayed first, (I-1) 4 h later; details: (I-1) alone 12.5 ppm a.i., evaluated 10 days after inoculation
Procedure: as §1, §2
Young plants are sprayed with the aqueous preparation of the biological control agents, e.g. Serenade® WPO, at the stated rate of application. 4 hours later and after the spray coating has dried on, the plants are sprayed with the preparation of (I-1) 2,6-dimethyl-1H,5H-[1,4]dithiino[2,3-c:5,6-c′]dipyrrole-1,3,5,7(2H,6H)-tetrone at the stated rate of application. The next day the plants are inoculated with an aqueous conidia suspension of the causal agent of apple scab (Venturia inaequalis) and then remain for 1 day in an incubation cabinet at approximately 20° C. and a relative atmospheric humidity of 100%. The plants are then placed in a greenhouse at approximately 21° C. and a relative atmospheric humidity of approximately 90%. The test is evaluated 10 days after the inoculation. […]

Alternaria solani [4] = test: Alternaria test (tomatoes)/preventive, Example H: biological control agent sprayed first, (I-1) 4 h later; details: (I-1) alone 25 ppm a.i., evaluated 3 days after inoculation
Procedure: as §1, §2
Young plants are sprayed with the aqueous preparation of the biological control agents, e.g. Serenade® WPO, at the stated rate of application. 4 hours later and after the spray coating has dried on, the plants are sprayed with the preparation of (I-1) 2,6-dimethyl-1H,5H-[1,4]dithiino[2,3-c:5,6-c′]dipyrrole-1,3,5,7(2H,6H)-tetrone at the stated rate of application. The next day the plants are inoculated with an aqueous spore suspension of Alternaria solani. The plants are then placed in an incubation cabinet at approximately 20° C. and a relative atmospheric humidity of 100%. The test is evaluated 3 days after the inoculation. 0% means an efficacy which corresponds to that of the untreated control while an efficacy of 100% means that no disease is observed.

Phytophthora infestans [5] = details: tomatoes; (I-1) alone 50 ppm a.i.; evaluated 3 days after inoculation
Venturia inaequalis [6] = test: Venturia test (apples)/preventive, Example C: (I-1) sprayed first, biological control agent 4 h later; details: (I-1) alone 25 ppm a.i., evaluated 10 days after inoculation
Procedure: as §1, §2
Young plants are sprayed with the preparation of (I-1) 2,6-dimethyl-1H,5H-[1,4]dithiino[…]dipyrrole-1,3,5,7(2H,6H)-tetrone at the stated rate of application. 4 hours later and after the spray coating has dried on, the plants are sprayed with the aqueous preparation of the biological control agents, e.g. Serenade® WPO, at the stated rate of application. The next day the plants are inoculated with an aqueous conidia suspension of the causal agent of apple scab (Venturia inaequalis) and then remain for 1 day in an incubation cabinet at approximately 20° C. and a relative atmospheric humidity of 100%. The plants are then placed in a greenhouse at approximately 21° C. and a relative atmospheric humidity of approximately 90%. The test is evaluated 10 days after the inoculation. […]

## Cn1c(=O)c2sc3c(=O)n(C)c(=O)c3sc2c1=O [(I-1), 2,6-dimethyl-1H,5H-[1,4]dithiino[2,3-c:5,6-c′]dipyrrole-1,3,5,7(2H,6H)-tetrone]
Sphaerotheca fuliginea
  Efficacy in % found: 0%
Phytophthora infestans [1]; (I-1) alone 12.5 ppm a.i.
  Efficacy in % found: 15%
Phytophthora infestans [1]; (I-1) alone 25 ppm a.i.
  Efficacy in % found: 40%
Botrytis cinerea
  Efficacy in % found: 4%
Alternaria solani [2]
  Efficacy in % found: 35%
Sphaerotheca fidiginea
  Efficacy in % found: 0%
Venturia inaequalis [3]
  Efficacy in % found: 48%
Alternaria solani [4]
  Efficacy in % found: 21%
Phytophthora infestans [5]
  Efficacy in % found: 84%
Venturia inaequalis [6]
  Efficacy in % found: 49%
